Reference: PubChem BioAssay AID1845215 (Molecular Pharmacology Branch, DTP, NCI, 2023)

System: SW 1271 complex tumor spheroid viability
Assay: Anticancer human tumor SW 1271 cell line growth inhibition;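 further: spheroids exposed to agents for seven days before readout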;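 on viability, T/C: percent of DMSO vehicle control luminescence so 100% = vehicle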
Conditions: for IC50: curve of first compound; for viability, T/C: stronger effect = lower value
Procedure, shortened: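 Complex spheroids of malignant cells with endothelial cells and mesenchymal stem cells; agents alone or combined, from near clinical Cmax (or 10 microM if unknown) down in half-log steps, 0.25% DMSO final.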

Cc1sc2c(c1C)C(c1ccc(Cl)cc1)=NC(CC(=O)Nc1ccc(O)cc1)c1nnc(C)n1-2 (stereo not given) + Cn1nnc2c(C(N)=O)ncn2c1=O
IC50 (second compound 1 µM): 69 nM
IC50 (second compound 3.16 µM): 85.4 nM
IC50 (second compound 10 µM): 77.9 nM
IC50 (second compound 31.6 µM): 70.1 nM
IC50 (second compound 100 µM): 54.2 nM
viability, T/C (second compound 1 µM, first compound 0.00949 µM): 118%
viability, T/C (second compound 1 µM, first compound 0.03 µM): 100%
viability, T/C (second compound 1 µM, first compound 0.0949 µM): 30.9%
viability, T/C (second compound 1 µM, first compound 0.3 µM): 3.27%
viability, T/C (second compound 1 µM, first compound 0.949 µM): 1.29%
viability, T/C (second compound 1 µM, first compound 3 µM): 1.13%
viability, T/C (second compound 3.16 µM, first compound 0.00949 µM): 107%
viability, T/C (second compound 3.16 µM, first compound 0.03 µM): 110%
viability, T/C (second compound 3.16 µM, first compound 0.0949 µM): 44.2%
viability, T/C (second compound 3.16 µM, first compound 0.3 µM): 2.74%
viability, T/C (second compound 3.16 µM, first compound 0.949 µM): 1.12%
viability, T/C (second compound 3.16 µM, first compound 3 µM): 1.25%
viability, T/C (second compound 10 µM, first compound 0.00949 µM): 116%
viability, T/C (second compound 10 µM, first compound 0.03 µM): 110%
viability, T/C (second compound 10 µM, first compound 0.0949 µM): 37.5%
viability, T/C (second compound 10 µM, first compound 0.3 µM): 3.68%
viability, T/C (second compound 10 µM, first compound 0.949 µM): 1.21%
viability, T/C (second compound 10 µM, first compound 3 µM): 1.48%
viability, T/C (second compound 31.6 µM, first compound 0.00949 µM): 104%
viability, T/C (second compound 31.6 µM, first compound 0.03 µM): 96.5%
viability, T/C (second compound 31.6 µM, first compound 0.0949 µM): 33.5%
viability, T/C (second compound 31.6 µM, first compound 0.3 µM): 3.27%
viability, T/C (second compound 31.6 µM, first compound 0.949 µM): 1.04%
viability, T/C (second compound 31.6 µM, first compound 3 µM): 0.93%
viability, T/C (second compound 100 µM, first compound 0.00949 µM): 96.8%
viability, T/C (second compound 100 µM, first compound 0.03 µM): 77.6%
viability, T/C (second compound 100 µM, first compound 0.0949 µM): 24%
viability, T/C (second compound 100 µM, first compound 0.3 µM): 2.27%
viability, T/C (second compound 100 µM, first compound 0.949 µM): 1.7%
viability, T/C (second compound 100 µM, first compound 3 µM): 0.96%
